Test results: patent US20230416232A1, “PYRIMIDINE COMPOUNDS, COMPOSITIONS, AND MEDICINAL APPLICATIONS THEREOF” (Blueprint Medicines Corporation, priority 2020, published 2023)
Where two headings read alike, the source gives them in different places.

Columns and labels:
Assay type in all cases: cell-based
[1] = target: EGFR(D770_N771insSVD) expressing Ba/F3 stable cell line (Homo sapiens, UniProt P00533, DUP768-770, cells depend on it); assay: Cellular proliferation (Alamar Blue) assay, EGFR(D770_N771insSVD) Ba/F3
Method in brief: (§1)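 Engineered Ba/F3 lines in RPMI with 10% FBS and A431 cells in DMEM with 10% FBS are plated overnight, exposed to compound dilutions (10-0.0005 μM final) for 72 hours, and then scored by a 3-hour Alamar Blue incubation.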

[2] = target: EGFR (A767_dupASV) expressing Ba/F3 stable cell line (Homo sapiens, UniProt P00533, DUP767-769, cells depend on it); assay: Cellular proliferation (Alamar Blue) assay, EGFR (A767_dupASV) Ba/F3
Method in brief: as §1

A431 cells = assay: Cellular proliferation (Alamar Blue) assay, A431 cells; details: Homo sapiens, A-431, 72 h, read-out: A431 IC50
Method in brief: as §1

[3] = target: EGFR (H773insNPH) expressing Ba/F3 stable cell line (Homo sapiens, UniProt P00533, DUP771-773, cells depend on it); assay: Cellular proliferation (Alamar Blue) assay, EGFR (H773insNPH) Ba/F3
Experimental: Cell line details: • 1. EGFR(D770_N771insSVD) expressing Ba/F3 stable cell line • 2. EGFR (A767_dupASV) expressing Ba/F3 stable cell line • 3. A431 cells • 4. EGFR (H773insNPH) expressing Ba/F3 stable cell line • 5. HER2 (A775_G776insYVMA) expressing Ba/F3 stable cell line
• 1. Seed cells at 5000 for A431 and 15,000 cells for Ba/F3 in 100 μL/well in complete media (for A431: DMEM with 10% FBS and for Ba/F3 cells: RPMI with 10% FBS) in 96-well tissue culture plate. Leave outer wells without cells for background measurements. Incubate at 37 degree Celsius in 5% CO2 humidified incubator for 16-18 hours. • 2. Add 0.025 ml of 5X concentration compound dilution or DMSO control. Final compound concentration range is 10-0.0005 μM prepared in 3-fold serial dilutions. Incubate for 72 hr at 37 degree Celsius in 5% CO2 humidified incubator. • 3. Add 0.0125 ml Alamar Blue™ reagent to each well with multi-channel pipette and tap gently on each side of the plate to mix. Incubate for 3 hours at 37 degree Celsius in 5% CO2 humidified incubator. • 4. […] Data analysis was performed using XLfit 5.5.0.5.

[4] = target: HER2 (A775_G776insYVMA) expressing Ba/F3 stable cell line (Homo sapiens, UniProt P04626, DUP772-775, cells depend on it); assay: Cellular proliferation (Alamar Blue) assay, HER2 (A775_G776insYVMA) Ba/F3; details: read-out: YVMA IC50
Method in brief: as §1

[5] = HER2 (A775_G776insYVMA) Ba/F3 cells, 72 hr, Alamar Blue

Sequence of EGFR(D770_N771insSVD) expressing Ba/F3 stable cell line (P00533 with tags, fused parts or gaps DUP768-770): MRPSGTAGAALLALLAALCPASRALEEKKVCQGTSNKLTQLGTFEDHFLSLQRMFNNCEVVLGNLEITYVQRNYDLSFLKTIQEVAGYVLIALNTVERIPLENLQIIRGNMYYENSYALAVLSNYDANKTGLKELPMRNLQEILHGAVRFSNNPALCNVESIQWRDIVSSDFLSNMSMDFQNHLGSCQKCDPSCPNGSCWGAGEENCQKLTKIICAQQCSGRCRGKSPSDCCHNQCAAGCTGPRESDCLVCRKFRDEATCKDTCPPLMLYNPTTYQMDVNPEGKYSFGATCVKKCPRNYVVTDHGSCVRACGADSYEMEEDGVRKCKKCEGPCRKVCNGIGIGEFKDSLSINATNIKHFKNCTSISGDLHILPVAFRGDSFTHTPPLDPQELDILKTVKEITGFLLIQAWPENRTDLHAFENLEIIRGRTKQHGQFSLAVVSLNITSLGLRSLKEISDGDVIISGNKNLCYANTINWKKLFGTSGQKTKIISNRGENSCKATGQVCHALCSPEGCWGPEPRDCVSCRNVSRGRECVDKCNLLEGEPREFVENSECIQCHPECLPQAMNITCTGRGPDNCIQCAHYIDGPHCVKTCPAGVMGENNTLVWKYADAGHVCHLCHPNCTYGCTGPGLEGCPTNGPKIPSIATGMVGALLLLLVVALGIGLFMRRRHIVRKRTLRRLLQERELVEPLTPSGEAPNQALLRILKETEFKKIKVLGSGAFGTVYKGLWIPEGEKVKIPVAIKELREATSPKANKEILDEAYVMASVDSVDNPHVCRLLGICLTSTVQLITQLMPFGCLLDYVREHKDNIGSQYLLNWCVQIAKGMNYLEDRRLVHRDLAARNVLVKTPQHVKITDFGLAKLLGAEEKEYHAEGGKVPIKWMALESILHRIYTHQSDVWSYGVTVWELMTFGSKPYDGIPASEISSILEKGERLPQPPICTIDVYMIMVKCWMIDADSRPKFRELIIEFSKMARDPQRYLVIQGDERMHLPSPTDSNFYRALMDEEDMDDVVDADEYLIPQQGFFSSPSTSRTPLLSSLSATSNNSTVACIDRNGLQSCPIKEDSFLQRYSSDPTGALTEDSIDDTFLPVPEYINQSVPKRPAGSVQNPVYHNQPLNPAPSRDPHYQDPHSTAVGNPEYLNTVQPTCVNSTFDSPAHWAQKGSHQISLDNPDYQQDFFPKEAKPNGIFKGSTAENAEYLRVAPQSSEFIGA
Sequence of EGFR (A767_dupASV) expressing Ba/F3 stable cell line (P00533 with tags, fused parts or gaps DUP767-769): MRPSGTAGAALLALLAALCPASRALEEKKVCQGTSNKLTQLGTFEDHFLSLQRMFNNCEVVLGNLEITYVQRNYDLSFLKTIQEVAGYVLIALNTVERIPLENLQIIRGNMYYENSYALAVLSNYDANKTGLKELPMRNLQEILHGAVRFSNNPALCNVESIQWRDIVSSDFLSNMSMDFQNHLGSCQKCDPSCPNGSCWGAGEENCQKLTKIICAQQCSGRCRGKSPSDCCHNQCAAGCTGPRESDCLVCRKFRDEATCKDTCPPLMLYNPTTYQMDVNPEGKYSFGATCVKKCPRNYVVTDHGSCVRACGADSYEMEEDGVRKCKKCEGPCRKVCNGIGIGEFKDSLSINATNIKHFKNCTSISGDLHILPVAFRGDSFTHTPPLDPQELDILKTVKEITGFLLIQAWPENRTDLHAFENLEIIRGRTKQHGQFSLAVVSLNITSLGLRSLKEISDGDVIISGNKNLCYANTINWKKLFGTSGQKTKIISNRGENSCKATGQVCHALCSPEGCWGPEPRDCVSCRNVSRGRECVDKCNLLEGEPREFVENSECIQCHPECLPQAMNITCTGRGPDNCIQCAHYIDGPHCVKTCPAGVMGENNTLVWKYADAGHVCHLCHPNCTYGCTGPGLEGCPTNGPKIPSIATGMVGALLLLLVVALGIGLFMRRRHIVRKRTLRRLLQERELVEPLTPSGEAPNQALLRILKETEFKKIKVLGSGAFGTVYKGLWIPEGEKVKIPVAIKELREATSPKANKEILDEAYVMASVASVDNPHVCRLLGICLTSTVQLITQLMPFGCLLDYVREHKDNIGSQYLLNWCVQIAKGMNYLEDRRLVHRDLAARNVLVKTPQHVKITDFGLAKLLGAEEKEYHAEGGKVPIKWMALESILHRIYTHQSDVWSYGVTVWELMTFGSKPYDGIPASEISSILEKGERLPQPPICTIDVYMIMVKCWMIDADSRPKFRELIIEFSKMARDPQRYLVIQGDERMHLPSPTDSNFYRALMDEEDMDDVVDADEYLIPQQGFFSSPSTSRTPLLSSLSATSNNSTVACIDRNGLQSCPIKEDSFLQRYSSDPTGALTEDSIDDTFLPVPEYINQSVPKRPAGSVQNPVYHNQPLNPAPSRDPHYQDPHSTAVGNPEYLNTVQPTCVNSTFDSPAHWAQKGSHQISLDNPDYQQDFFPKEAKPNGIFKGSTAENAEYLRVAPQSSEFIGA
Sequence of EGFR (H773insNPH) expressing Ba/F3 stable cell line (P00533 with tags, fused parts or gaps DUP771-773): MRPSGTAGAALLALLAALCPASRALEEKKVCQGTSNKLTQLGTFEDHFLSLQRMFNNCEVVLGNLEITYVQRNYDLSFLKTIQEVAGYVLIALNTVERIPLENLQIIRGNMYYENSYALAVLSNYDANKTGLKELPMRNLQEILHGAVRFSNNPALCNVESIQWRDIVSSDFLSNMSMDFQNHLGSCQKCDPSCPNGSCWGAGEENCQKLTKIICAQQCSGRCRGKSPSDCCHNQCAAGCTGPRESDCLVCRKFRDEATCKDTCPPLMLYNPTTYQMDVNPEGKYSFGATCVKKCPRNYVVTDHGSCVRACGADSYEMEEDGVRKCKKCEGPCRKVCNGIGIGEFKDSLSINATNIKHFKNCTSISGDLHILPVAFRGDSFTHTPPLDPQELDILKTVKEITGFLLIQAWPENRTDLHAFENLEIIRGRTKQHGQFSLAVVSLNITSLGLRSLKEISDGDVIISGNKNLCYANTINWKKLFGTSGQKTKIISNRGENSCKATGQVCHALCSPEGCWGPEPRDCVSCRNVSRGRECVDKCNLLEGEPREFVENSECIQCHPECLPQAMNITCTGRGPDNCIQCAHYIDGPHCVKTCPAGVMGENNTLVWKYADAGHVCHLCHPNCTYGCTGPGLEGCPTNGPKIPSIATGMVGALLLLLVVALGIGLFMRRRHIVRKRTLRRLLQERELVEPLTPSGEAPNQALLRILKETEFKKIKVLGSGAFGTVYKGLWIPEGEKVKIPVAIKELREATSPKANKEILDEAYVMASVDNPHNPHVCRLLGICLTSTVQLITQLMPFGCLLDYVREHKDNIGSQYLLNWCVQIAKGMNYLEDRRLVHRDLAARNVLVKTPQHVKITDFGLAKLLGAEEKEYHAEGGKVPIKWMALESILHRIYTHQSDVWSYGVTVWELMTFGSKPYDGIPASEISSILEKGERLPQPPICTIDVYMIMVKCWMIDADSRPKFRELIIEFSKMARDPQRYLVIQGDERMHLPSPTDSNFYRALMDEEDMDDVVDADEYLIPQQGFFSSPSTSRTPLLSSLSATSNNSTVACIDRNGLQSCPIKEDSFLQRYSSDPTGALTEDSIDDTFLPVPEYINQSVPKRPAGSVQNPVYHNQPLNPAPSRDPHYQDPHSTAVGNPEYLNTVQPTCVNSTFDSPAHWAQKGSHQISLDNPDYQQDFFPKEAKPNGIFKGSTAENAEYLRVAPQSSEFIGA
Sequence of HER2 (A775_G776insYVMA) expressing Ba/F3 stable cell line (P04626 with tags, fused parts or gaps DUP772-775): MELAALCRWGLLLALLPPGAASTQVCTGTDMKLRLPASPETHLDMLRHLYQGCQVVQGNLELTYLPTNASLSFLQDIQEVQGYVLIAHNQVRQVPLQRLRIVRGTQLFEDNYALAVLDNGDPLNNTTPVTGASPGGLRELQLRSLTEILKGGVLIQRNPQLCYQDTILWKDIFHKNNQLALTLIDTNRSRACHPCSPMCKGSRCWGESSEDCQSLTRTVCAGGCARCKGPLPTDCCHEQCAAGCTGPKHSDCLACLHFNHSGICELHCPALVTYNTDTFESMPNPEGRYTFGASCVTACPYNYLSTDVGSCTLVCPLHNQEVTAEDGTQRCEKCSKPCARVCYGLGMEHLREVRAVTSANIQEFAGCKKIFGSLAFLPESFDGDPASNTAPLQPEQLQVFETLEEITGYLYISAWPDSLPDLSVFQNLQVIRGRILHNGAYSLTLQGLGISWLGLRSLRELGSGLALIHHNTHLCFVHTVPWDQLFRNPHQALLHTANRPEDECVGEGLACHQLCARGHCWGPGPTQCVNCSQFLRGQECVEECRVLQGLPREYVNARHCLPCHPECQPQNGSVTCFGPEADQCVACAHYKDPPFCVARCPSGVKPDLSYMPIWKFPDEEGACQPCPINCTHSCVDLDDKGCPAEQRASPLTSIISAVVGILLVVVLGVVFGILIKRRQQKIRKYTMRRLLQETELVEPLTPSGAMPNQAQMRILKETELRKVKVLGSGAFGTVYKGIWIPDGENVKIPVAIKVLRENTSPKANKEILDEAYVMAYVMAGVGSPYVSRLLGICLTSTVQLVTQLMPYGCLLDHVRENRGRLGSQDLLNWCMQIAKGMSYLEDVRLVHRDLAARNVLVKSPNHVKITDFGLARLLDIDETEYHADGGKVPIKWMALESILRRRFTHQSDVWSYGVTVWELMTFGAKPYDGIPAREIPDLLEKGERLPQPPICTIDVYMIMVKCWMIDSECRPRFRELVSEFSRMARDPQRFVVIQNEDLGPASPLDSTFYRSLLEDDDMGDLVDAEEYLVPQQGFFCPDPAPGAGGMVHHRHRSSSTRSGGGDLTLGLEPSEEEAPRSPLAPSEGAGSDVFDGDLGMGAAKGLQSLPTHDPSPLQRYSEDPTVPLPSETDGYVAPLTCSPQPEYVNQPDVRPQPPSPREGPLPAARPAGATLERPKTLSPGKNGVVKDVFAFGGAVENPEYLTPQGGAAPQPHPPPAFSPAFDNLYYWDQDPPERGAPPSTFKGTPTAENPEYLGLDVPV

Compound | GI50 ([1]; 72 hr, read-out: D770 IC50) | GI50 ([2]; 72 hr, read-out: A767 IC50) | IC50 (A431 cells; A431 cells, 72 hr, Alamar Blue) | GI50 ([3]; 72 hr, read-out: NPH IC50) | GI50 [4, 5] | GI50 ([1]; read-out: D770 IC50, 72 hr) | GI50 ([2]; read-out: A767 IC50, 72 hr) | IC50 (A431 cells) | GI50 ([3]; read-out: NPH IC50, 72 hr) | GI50 ([4]; her2 (a775_g776insyvma) expressing ba/f3 stable cell line)
C=CC(=O)Nc1cccc(Nc2nc(Nc3cnn(C)c3)ncc2-c2cc(F)cc(C(F)F)c2)c1 [Compound 43, N-(3-((5-(3-(difluoromethyl)-5-fluorophenyl)-2-((1-methyl-1H-pyrazol-4-yl)amino)pyrimidin-4-yl)amino)phenyl)acrylamide] | 35 nM | 41 nM | 707 nM | 24 nM | 84 nM | – | – | – | – | –
C=CC(=O)Nc1cccc(Nc2nc(Nc3cnn(C)c3)ncc2-c2ccc(F)c(Cl)c2)c1 [Compound 49, N-(3-((5-(3-chloro-4-fluorophenyl)-2-((1-methyl-1H-pyrazol-4-yl)amino)pyrimidin-4-yl)amino)phenyl)acrylamide] | 38 nM | 44 nM | 246 nM | 27 nM | 65 nM | – | – | – | – | –
C=CC(=O)Nc1ccc(F)c(Nc2nc(Nc3cnn(C4COC4)c3)ncc2-c2ccc(F)c(Cl)c2)c1 [Compound 53, N-(3-((5-(3-chloro-4-fluorophenyl)-2-((1-(oxetan-3-yl)-1H-pyrazol-4-yl)amino)pyrimidin-4-yl)amino)-4-fluorophenyl)acrylamide] | 104 nM | 119 nM | 1220 nM | 153 nM | 211 nM | – | – | – | – | –
C=CC(=O)Nc1ccc(F)c(Nc2nc(Nc3cnn(C4COC4)c3)ncc2-c2ccc(Cl)c(Cl)c2)c1 [Compound 56, N-(3-((5-(3,4-dichlorophenyl)-2-((1-(oxetan-3-yl)-1H-pyrazol-4-yl)amino)pyrimidin-4-yl)amino)-4-fluorophenyl)acrylamide] | 104 nM | 95 nM | 587 nM | 84 nM | 118 nM | – | – | – | – | –
C=CC(=O)Nc1ccc(F)c(Nc2nc(Nc3cnn(CCN(C)C)c3)ncc2-c2ccc(F)c(Cl)c2)c1 [Compound 57, N-(3-((5-(3-chloro-4-fluorophenyl)-2-((1-(2-(dimethylamino)ethyl)-1H-pyrazol-4-yl)amino)pyrimidin-4-yl)amino)-4-fluorophenyl)acrylamide] | – | – | – | – | – | 111 nM | 207 nM | 699 nM | 62 nM | 112 nM
C=CC(=O)Nc1ccc(F)c(Nc2nc(Nc3cnn(CCN(C)C)c3)ncc2-c2ccc(Cl)c(Cl)c2)c1 [Compound 58, N-(3-((5-(3,4-dichlorophenyl)-2-((1-(2-(dimethylamino)ethyl)-1H-pyrazol-4-yl)amino)pyrimidin-4-yl)amino)-4-fluorophenyl)acrylamide] | 130 nM | 257 nM | 85 nM | 214 nM | 100 nM | – | – | – | – | –
C=CC(=O)Nc1ccc(F)c(Nc2nc(Nc3cnn(C)c3)ncc2-c2ccc(CN(C)C)c(F)c2)c1 [Compound 60, N-(3-((5-(4-((dimethylamino)methyl)-3-fluorophenyl)-2-((1-methyl-1H-pyrazol-4-yl)amino)pyrimidin-4-yl)amino)-4-fluorophenyl)acrylamide] | 170 nM | 150 nM | 1180 nM | 462 nM | 952 nM | – | – | – | – | –
C=CC(=O)Nc1ccc(F)c(Nc2nc(Nc3cnn(CCO)c3)ncc2-c2ccc(F)c(Cl)c2)c1 [Compound 62, N-(3-((5-(3-chloro-4-fluorophenyl)-2-((1-(2-hydroxyethyl)-1H-pyrazol-4-yl)amino)pyrimidin-4-yl)amino)-4-fluorophenyl)acrylamide] | 75 nM | 80 nM | 1000 nM | 91 nM | 103 nM | – | – | – | – | –
C=CC(=O)Nc1ccc(F)c(Nc2nc(Nc3cnn(C)c3)ncc2-c2cc(C)cc(F)c2)c1 [Compound 64, N-(4-fluoro-3-((5-(3-fluoro-5-methylphenyl)-2-((1-methyl-1H-pyrazol-4-yl)amino)pyrimidin-4-yl)amino)phenyl)acrylamide] | 61 nM | 104 nM | 554 nM | 95 nM | 159 nM | – | – | – | – | –
C=CC(=O)Nc1ccc(F)c(Nc2nc(Nc3cnn(C)c3)ncc2-c2cc(F)cc(OC)c2)c1 [Compound 65, N-(4-fluoro-3-{[5-(3-fluoro-5-methoxyphenyl)-2-[(1-methyl-1H-pyrazol-4-yl)amino]pyrimidin-4-yl]amino}phenyl)prop-2-enamide] | 114 nM | 226 nM | 1070 nM | 304 nM | 112 nM | – | – | – | – | –
C=CC(=O)Nc1cccc(Nc2nc(Nc3cnn(C)c3)ncc2-c2ccc(F)c(F)c2)c1 [Compound 67, N-(3-((5-(3,4-difluorophenyl)-2-((1-methyl-1H-pyrazol-4-yl)amino)pyrimidin-4-yl)amino)phenyl)acrylamide] | 36 nM | 41 nM | 213 nM | 100 nM | 60 nM | – | – | – | – | –
C=CC(=O)Nc1ccc(F)c(Nc2nc(Nc3cnn(C)c3)ncc2-c2ccc(N3CCOCC3)c(F)c2)c1 [Compound 76, N-[4-fluoro-3-({5-[3-fluoro-4-(morpholin-4-yl)phenyl]-2-[(1-methyl-1H-pyrazol-4-yl)amino]pyrimidin-4-yl}amino)phenyl]prop-2-enamide] | 220 nM | 72 nM | 1260 nM | 236 nM | 240 nM | – | – | – | – | –

The remaining molecules from weak to strong by GI50 ([1]; 72 hr, read-out: D770 IC50), led by results:

GI50 ([1]; 72 hr, read-out: D770 IC50) | GI50 ([2]; 72 hr, read-out: A767 IC50) | IC50 (A431 cells; A431 cells, 72 hr, Alamar Blue) | GI50 ([3]; 72 hr, read-out: NPH IC50) | GI50 [4, 5] | Compound | GI50 ([1]; read-out: D770 IC50, 72 hr) | GI50 ([2]; read-out: A767 IC50, 72 hr) | IC50 (A431 cells) | GI50 ([3]; read-out: NPH IC50, 72 hr) | GI50 ([4]; her2 (a775_g776insyvma) expressing ba/f3 stable cell line)
35 nM | 99 nM | 45 nM | 84 nM | 99 nM | C=CC(=O)Nc1ccc(F)c(Nc2nc(Nc3cnn(C)c3)ncc2-c2ccc(C(F)(F)F)c(F)c2)c1 [Compound 35, N-(4-fluoro-3-((5-(3-fluoro-4-(trifluoromethyl)phenyl)-2-((1-methyl-1H-pyrazol-4-yl)amino)pyrimidin-4-yl)amino)phenyl)acrylamide] | – | – | – | – | –
32 nM | 26 nM | 70 nM | 61 nM | 86 nM | C=CC(=O)Nc1ccc(F)c(Nc2nc(Nc3cnn(C)c3)ncc2-c2ccc(Cl)c(Cl)c2)c1 [Compound 50, N-(3-((5-(3,4-dichlorophenyl)-2-((1-methyl-1H-pyrazol-4-yl)amino)pyrimidin-4-yl)amino)-4-fluorophenyl)acrylamide] | – | – | – | – | –
30 nM | 34 nM | 51 nM | 51 nM | 93 nM | C=CC(=O)Nc1ccc(F)c(Nc2nc(Nc3cnn(C)c3)ncc2-c2ccc(C(F)F)c(F)c2)c1 [Compound 37, N-(3-((5-(4-(difluoromethyl)-3-fluorophenyl)-2-((1-methyl-1H-pyrazol-4-yl)amino)pyrimidin-4-yl)amino)-4-fluorophenyl)acrylamide] | – | – | – | – | –
21 nM | 34 nM | 46 nM | 20 nM | 25 nM | C=CC(=O)Nc1ccc(F)c(Nc2nc(Nc3cnn(C)c3)ncc2-c2cnc(F)c(C(F)(F)F)c2)c1 [Compound 47, N-(4-fluoro-3-((5-(6-fluoro-5-(trifluoromethyl)pyridin-3-yl)-2-((1-methyl-1H-pyrazol-4-yl)amino)pyrimidin-4-yl)amino)phenyl)acrylamide] | – | – | – | – | –
17 nM | 29 nM | 102 nM | 30 nM | 34 nM | C=CC(=O)Nc1ccc(F)c(Nc2nc(Nc3cnn(C)c3)ncc2-c2cnc(C)c(Cl)c2)c1 [Compound 46, N-(3-((5-(5-chloro-6-methylpyridin-3-yl)-2-((1-methyl-1H-pyrazol-4-yl)amino)pyrimidin-4-yl)amino)-4-fluorophenyl)acrylamide] | – | – | – | – | –
15 nM | 26 nM | 55 nM | 14 nM | 47 nM | C=CC(=O)Nc1cccc(Nc2nc(Nc3cnn(C)c3)ncc2-c2cc(F)cc(Cl)c2)c1 [Compound 66, N-(3-((5-(3-chloro-5-fluorophenyl)-2-((1-methyl-1H-pyrazol-4-yl)amino)pyrimidin-4-yl)amino)phenyl)acrylamide] | – | – | – | – | –
7 nM | 10 nM | 35 nM | 25 nM | 16 nM | C=CC(=O)Nc1ccc(F)c(Nc2nc(Nc3cnn(C)c3)ncc2-c2cnc(Cl)c(F)c2)c1 [Compound 45, N-(3-((5-(6-chloro-5-fluoropyridin-3-yl)-2-((1-methyl-1H-pyrazol-4-yl)amino)pyrimidin-4-yl)amino)-4-fluorophenyl)acrylamide] | – | – | – | – | –
